# Laboratory results: the supplement of paper PMC4862054
# Tests used:
# Conditions in all cases: incubation time: 72 h
# DU-4475 [1] = test: normalised response (% of control), CellTiter-Glo; higher = more viable cells (100 = DMSO, 0 = benzethonium chloride kill control)
# Procedure: (§1)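 DSRT, 72 h incubation, CellTox Green / CellTiter-Glo readout. Signal is normalised to DMSO and benzethonium chloride controls. Value is the normalised response at dose 3.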
# HCC1143 [2] = test: as above
# Procedure: as §1
# MDA-MB-231 [3] = test: as above
# Procedure: as §1
# MDA-MB-436 [4] = test: as above
# Procedure: as §1
# MDA-MB-468 [5] = test: as above
# Procedure: as §1
# SK-BR-3 = test: as above
# Procedure: as §1
# HDQ-P1 [6] = test: as above
# Procedure: as §1
# CAL-148 [7] = test: as above
# Procedure: as §1
# BT-549 [8] = test: as above
# Procedure: as §1
# HCC1599 [9] = test: as above
# Procedure: as §1
# CAL-51 [10] = test: as above
# Procedure: as §1
# MDA-MB-453 [11] = test: as above
# Procedure: as §1
# CAL-120 [12] = test: as above
# Procedure: as §1
# Hs578T [13] = test: as above
# Procedure: as §1
# MFM-223 [14] = test: as above
# Procedure: as §1
# BT-474 [15] = test: as above
# Procedure: as §1
# CAL-85-1 [16] = test: as above
# Procedure: as §1
# HCC1937 [17] = test: as above
# Procedure: as §1
# MCF-10A [18] = test: as above
# Procedure: as §1
# DU-4475 [19] = test: normalised response (% of control), CellTox Green; higher = less cell death (100 = DMSO, 0 = benzethonium chloride kill control)
# Outline: (§2)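 Two readouts were taken after 72 h: CellTox Green fluorescence (485/520 nm) first, then CellTiter-Glo luminescence after 10 min at room temperature. Breast cancer cell lines had been seeded as 20 µl suspension into 384-well plates holding compound at 5 concentrations in 10-fold steps across a compound-specific 10,000-fold range. Each value is a normalised signal at a single concentration, with plates scaled to 0.1 % DMSO (100) and a positive kill control (0).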
# HCC1143 [20] = test: as above
# Outline: as §2
# MDA-MB-231 [21] = test: as above
# Outline: as §2
# MDA-MB-436 [22] = test: as above
# Outline: as §2
# MDA-MB-468 [23] = test: as above
# Outline: as §2
# HDQ-P1 [24] = test: as above
# Outline: as §2
# CAL-148 [25] = test: as above
# Outline: as §2
# BT-549 [26] = test: as above
# Outline: as §2
# HCC1599 [27] = test: as above
# Outline: as §2
# CAL-51 [28] = test: as above
# Outline: as §2
# MDA-MB-453 [29] = test: as above
# Outline: as §2
# CAL-120 [30] = test: as above
# Outline: as §2
# Hs578T [31] = test: as above
# Outline: as §2
# MFM-223 [32] = test: as above
# Outline: as §2
# BT-474 [33] = test: as above
# Outline: as §2
# CAL-85-1 [34] = test: as above
# Outline: as §2
# MCF-10A [35] = test: as above
# Outline: as §2
# HCC1937 [36] = test: as above
# Outline: as §2
SMILES,normalised response (DU-4475 [1]),normalised response (HCC1143 [2]),normalised response (MDA-MB-231 [3]),normalised response (MDA-MB-436 [4]),normalised response (MDA-MB-468 [5]),normalised response (SK-BR-3),normalised response (HDQ-P1 [6]),normalised response (CAL-148 [7]),normalised response (BT-549 [8]),normalised response (HCC1599 [9]),normalised response (CAL-51 [10]),normalised response (MDA-MB-453 [11]),normalised response (CAL-120 [12]),normalised response (Hs578T [13]),normalised response (MFM-223 [14]),normalised response (BT-474 [15]),normalised response (CAL-85-1 [16]),normalised response (HCC1937 [17]),normalised response (MCF-10A [18]),normalised response (DU-4475 [19]),normalised response (HCC1143 [20]),normalised response (MDA-MB-231 [21]),normalised response (MDA-MB-436 [22]),normalised response (MDA-MB-468 [23]),normalised response (HDQ-P1 [24]),normalised response (CAL-148 [25]),normalised response (BT-549 [26]),normalised response (HCC1599 [27]),normalised response (CAL-51 [28]),normalised response (MDA-MB-453 [29]),normalised response (CAL-120 [30]),normalised response (Hs578T [31]),normalised response (MFM-223 [32]),normalised response (BT-474 [33]),normalised response (CAL-85-1 [34]),normalised response (MCF-10A [35]),normalised response (HCC1937 [36])
Cc1c(N)nc([C@H](CC(N)=O)NC[C@H](N)C(N)=O)nc1C(=O)N[C@H](C(=O)N[C@H](C)[C@@H](O)[C@H](C)C(=O)N[C@H](C(=O)NCCc1nc(-c2nc(C(=O)NCCC[S+](C)C)cs2)cs1)[C@@H](C)O)[C@@H](OC1OC(CO)C(O)C(O)C1OC1OC(CO)C(O)C(OC(N)=O)C1O)c1cnc[nH]1 (stereo partly drawn) [Bleomycin] (100 nM),93.8%,90.6%,89.3%,89.1%,80.4%,92.8%,99.5%,87.7%,77.2%,94.6%,55%,90.2%,95.3%,93.2%,95.6%,95.8%,96.8%,84.2%,90.6%,98.6%,91.3%,104%,58.6%,151%,110%,93.5%,87.6%,91.9%,36.9%,103%,95.1%,81.2%,101%,98.1%,99.8%,93.2%,–
CCCCCOC(=O)Nc1nc(=O)n([C@@H]2O[C@H](C)[C@@H](O)[C@H]2O)cc1F [Capecitabine] (100 nM),106%,98.7%,99.5%,102%,103%,100%,97.5%,114%,102%,98.3%,99.5%,103%,103%,98.8%,102%,98.7%,95.4%,97.2%,95.5%,99.9%,87.6%,104%,95.3%,127%,105%,99.1%,89.4%,95.2%,105%,97.3%,99.9%,–,104%,91.4%,105%,101%,103%
C[C@@H]1C[C@H]2[C@@H]3CCC4=CC(=O)C=C[C@]4(C)[C@@]3(F)[C@@H](O)C[C@]2(C)[C@@]1(O)C(=O)CO [Dexamethasone] (100 nM),102%,101%,154%,101%,103%,88.4%,84.8%,91.2%,103%,95.2%,101%,83.8%,72.8%,92.5%,95.7%,145%,113%,99%,84.3%,96.4%,101%,–,67.3%,97.2%,–,97.2%,101%,96%,99.4%,95.5%,96.7%,114%,95.7%,96.4%,107%,97%,68%
Cc1c(C(=O)Nc2ccc(N3C[C@@H](C)O[C@@H](C)C3)nc2)cccc1-c1ccc(OC(F)(F)F)cc1 [Erismodegib] (100 nM),99.4%,96.4%,99.9%,92.3%,90.4%,88.6%,91.3%,92.7%,102%,93.5%,68.9%,85%,101%,101%,85.6%,91.2%,92.6%,103%,89.6%,95.8%,98.8%,97.2%,101%,–,99.6%,105%,104%,110%,93.3%,98.6%,94.8%,109%,97.2%,97.1%,88.8%,94.9%,–
O=NN(CCCl)C(=O)NC1CCCCC1 [Lomustine] (100 nM),107%,104%,99.4%,101%,96.1%,102%,104%,91.5%,103%,90.1%,104%,101%,97.7%,99.6%,110%,104%,95.6%,89.4%,98.4%,103%,104%,110%,108%,103%,96.1%,–,77.1%,101%,109%,106%,102%,102%,105%,101%,113%,103%,96.5%
N[C@@H](Cc1ccc(N(CCCl)CCCl)cc1)C(=O)O [Melphalan] (125 nM),92.7%,90.2%,83.3%,98.1%,75.4%,84.8%,90.1%,78.3%,100%,104%,67.5%,79.2%,108%,93.1%,91.5%,91.5%,105%,83.4%,103%,107%,102%,50.5%,103%,87.3%,108%,89.5%,103%,88.9%,75.1%,76.5%,101%,–,96.1%,102%,104%,98.4%,99.1%
C[C@]12C=CC(=O)C=C1CC[C@@H]1[C@@H]2C(=O)C[C@@]2(C)[C@H]1CC[C@]2(O)C(=O)CO [Prednisone] (100 nM),101%,105%,107%,101%,99.3%,104%,101%,117%,99.8%,133%,68.4%,113%,103%,101%,102%,107%,103%,101%,109%,103%,119%,–,92.4%,126%,–,64.5%,96.7%,105%,101%,107%,99.5%,111%,78.5%,103%,104%,85.8%,–
CO[C@H]1C[C@@H]2CC[C@@H](C)[C@@](O)(O2)C(=O)C(=O)N2CCCC[C@H]2C(=O)O[C@H]([C@H](C)C[C@@H]2CC[C@@H](O)[C@H](OC)C2)CC(=O)[C@H](C)/C=C(\C)[C@@H](O)[C@@H](OC)C(=O)[C@H](C)C[C@H](C)/C=C/C=C/C=C/1C [Sirolimus] (1 nM),98.7%,92.5%,101%,92.4%,71.1%,95.4%,102%,94.2%,83.5%,103%,90.1%,93.7%,98%,88.2%,96.5%,90.5%,78.4%,85.6%,112%,105%,78.7%,109%,79.2%,119%,97.1%,103%,78.5%,94.8%,107%,109%,97.4%,–,92.6%,102%,105%,91.9%,–
